Results: patent US9989532B2, “Methods and compositions for detecting coagulation inhibitors” (The University of North Carolina at Chapel Hill, priority 2013, dated 2018)

How the values were obtained:
[1] = cited from earlier work; for time to peak plasma concentration: after oral ingestion
[2] = molecular target: T1, thrombin (Homo sapiens, UniProt P00734); assay: substrate cleavage by thrombin in presence of sample; assay type: biochemical; conditions: substance in sample; substrate methoxycarbonyl-D-cyclohexylalanyl-glycyl-arginine-para-nitroaniline
T1 construct: Thrombin (factor IIa) was purchased from Haematologic Technologies; purchased Haematologic Technologies
Procedure: (§1) Substrate cleavage in the presence of test sample is measured for all four test conditions.
(§2) There are any number of substrates for thrombin and factor Xa and other proteases as described herein that can be used in the methods of this invention. In some embodiments, the substrate is a chromogenic substrate, which can be a para-nitroanalide synthetic substrate. Non-limiting examples of a chromogenic substrate of this invention include tosyl-glycyl-prolyl-arginine para-nitroanilide, H-D-cyclohexylglycyl-alanyl-arginine para-nitroanilide, H-beta-alanyl-glycyl-arginine para-nitroanilide, H-D-cyclohexylalanyl-alanyl-arginine para-nitroanilide, H-D-phenylalanyl-pipecolyl-arginine para-nitroanilide, H-D-(carbobenzoyl)lysyl-prolyl-arginine para-nitroanilide, H-beta-alanyl-glycyl-arginine 7-amino-4-methylcoumarin, H-D-cyclohexylglycyl-alanyl-arginine 7-amino-4-methylcoumarin, H-D-(carbobenzoyl)lysyl-prolyl-arginine 7-amino-4-methylcoumarin, methoxycarbonyl-D-cyclohexylalanyl-glycyl-arginine para-nitroanilide, methoxycarbonyl-D-cyclohexylglycyl-glycyl-arginine para-nitroanilide, benzoyloxycarbonyl-D-arginyl-glycyl-arginine para-nitroanilide, benzoyl-isoleucyl-glutamyl-glycyl-arginine para-nitroanilide, methylsulfonyl-D-cyclohexylalanyl-glycyl-arginine 7-amino-4-methylcoumarin, and methoxycarbonyl-D-cyclohexylalanyl-glycyl-arginine 7-amino-4-methylcoumarin.
(§3) Thrombin (factor IIa) was purchased from Haematologic Technologies. Factor Xa was purchased from Enzyme Research Labs.

[3] = molecular target: T2, a2M-thrombin (a2M-IIa) (Homo sapiens, UniProt P00734); assay: substrate cleavage by a2M-IIa (thrombin caged in alpha-2-macroglobulin); assay type: biochemical; conditions: for cleavage of the substrate, (b) a2M-thrombin (a2M-IIa): substance in sample, substrate methoxycarbonyl-D-cyclohexylalanyl-glycyl-arginine-para-nitroaniline
T2 construct: Thrombin (factor IIa) was purchased from Haematologic Technologies; host or cells: no expression host: complex formed in vitro from purchased thrombin and a2M purified from human plasma, then purified on Q-Sepharose
Procedure: as §1, §2
(§4) 0.5 mM of para-nitroanilide synthetic substrate (Pefachrome FXa) was added and the rate of substrate cleavage determined by appearance of yellow color characteristic of the cleaved substrate. Pefachrome FXa is also effective as a substrate for thrombin.
Purified a2M-IIa was eluted from the column with 1M sodium chloride in 20 mM HEPES (pH 7.4).
(§5) The rates of substrate cleavage were converted to concentrations using measured Km and kcat values determined as previously described (Joost et al. “Inhibition of human blood coagulation factor Xa by alpha-2-macroglobulin” Biochemistry 26:5932-5937 (1987) doi: 10.1021/bi00392a053) (FIGS. 1-5).

[4] = molecular target: T3, factor Xa (Homo sapiens, UniProt P00742); assay: substrate cleavage by factor Xa in presence of sample; assay type: biochemical; conditions: substance in sample; substrate methoxycarbonyl-D-cyclohexylalanyl-glycyl-arginine-para-nitroaniline
T3 construct: Factor Xa was purchased from Enzyme Research Labs; purchased Enzyme Research Labs
Procedure: as §1, §2, §3

[5] = molecular target: T4, a2M-Xa (Homo sapiens, UniProt P00742); assay: substrate cleavage by a2M-Xa (factor Xa caged in alpha-2-macroglobulin); assay type: biochemical; parameters: Factor Xa was purchased from Enzyme Research Labs; host or cells: no expression host: complex formed in vitro from purchased factor Xa and a2M purified from human plasma, then purified on heparin Sepharose and Q-Sepharose; conditions: for cleavage of the substrate, (d) a2M-Xa: substance in sample, substrate methoxycarbonyl-D-cyclohexylalanyl-glycyl-arginine-para-nitroaniline
Procedure: as §1, §2, §4, §5

[6] = tested on: mice; assay: saphenous vein injury bleeding time in mice; assay type: in vivo; conditions: FIG. 6, normal mouse
Procedure: Mice were administered 160 μg/kg rivaroxaban designed to produce a free plasma level of 36 ng/mL (75 nM), assuming 1.6% recovery based on estimates from Gnoth et al. (“in vitro and in vivo P-glycoprotein transport characteristics of rivaroxaban” J Pharmacol Exp Thor. 338:372-380 (2011) doi: 10.1124/jpet.111.180240) and Weinz et al. (“Pharmacokinetics of BAY 59-7939—an oral, direct Factor Xa inhibitor—in rats and dogs” Xenobiotica 35:891-910 (2005) doi: 10.1080/00498250500250493) and accounting for 95-98% blood cell and plasma protein binding (Weinz et al. “Pharmacokinetics of BAY 59-7939—an oral, direct Factor Xa inhibitor—in rats and dogs” Xenobiotica 35:891-910 (2005))

[7] = molecular target: T4, a2M-Xa; conditions: substance in plasma of mice fed Pradaxa or Xarelto
Procedure: (§6) Mice were fed Xarelto or Pradaxa or regular chow. Plasma from the animals was analyzed for the presence of dabigatran (active metabolite of Pradaxa) or rivaroxaban (active component of Xarelto). […] 0.5 mM of para-nitroanilide synthetic substrate (Pefachrome FXa) was added and substrate cleavage was determined by appearance of yellow color characteristic of the cleaved substrate.

[8] = tested on: a2M-IIa; assay: a2M-IIa substrate cleavage test on plasma of fed mice
Procedure: as §6

[9] = cited from earlier work
[10] = assumed, based on estimates from Gnoth et al. and Weinz et al.; cited from earlier work

T3 sequence (P00742 235-488 limits assumed): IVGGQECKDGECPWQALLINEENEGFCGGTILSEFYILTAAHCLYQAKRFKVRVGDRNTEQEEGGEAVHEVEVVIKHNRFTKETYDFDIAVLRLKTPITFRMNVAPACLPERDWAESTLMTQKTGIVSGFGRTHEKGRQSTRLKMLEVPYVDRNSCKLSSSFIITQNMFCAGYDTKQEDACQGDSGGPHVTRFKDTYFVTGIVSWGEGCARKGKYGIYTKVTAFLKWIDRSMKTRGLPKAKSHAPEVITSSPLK
T3 sequence (P00742 41-179 limits assumed): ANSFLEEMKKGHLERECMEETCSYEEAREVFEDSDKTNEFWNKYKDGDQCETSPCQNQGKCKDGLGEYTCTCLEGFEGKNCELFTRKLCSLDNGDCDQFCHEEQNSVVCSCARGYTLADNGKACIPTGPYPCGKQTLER

Compound	cleavage of the substrate, (a) Thrombin [2]	cleavage of the substrate, (b) a2M-thrombin (a2M-IIa) [3]	cleavage of the substrate, (c) Factor Xa [4]	cleavage of the substrate, (d) a2M-Xa [5]	oral bioavailability [1]	time to peak plasma concentration [1]	other results
COc1ccc(-n2nc(C(N)=O)c3c2C(=O)N(c2ccc(N4CCCCC4=O)cc2)CC3)cc1 [apixaban]					more than 50%		eliminated by the kidneys ([1]; in vivo): 25%; metabolism ([1]; in vivo): metabolized in part by CYP3A4
low molecular weight heparin	Cleavage	Cleavage	No	Cleavage			
O=C(NC[C@H]1CN(c2ccc(N3CCOCC3=O)cc2)C(=O)O1)c1ccc(Cl)s1 [rivaroxaban]	Cleavage	Cleavage	No	No	more than 80%	approximately 3 hours	time for saphenous vein injury to stop bleeding ([6]; 160 μg/kg rivaroxaban alone): ~2 min; effect on a2M-Xa cleavage of substrate [7]: blocked; effect on a2M-IIa cleavage of substrate ([8]; substance in plasma of mice fed Pradaxa or Xarelto): had no effect; blood cell and plasma protein binding [9]: 95-98%; recovery [10]: 1.6%; food effect on absorption from the gastrointestinal tract ([1]; in vivo): food does not affect absorption; excreted by the kidneys ([1]; orally ingested): Sixty-six; terminal half-life ([1]; steady state, patients >75 years old): up to 12 hours; effect on substrate cleavage by purified a2M-IIa ([3]; FIG. 1, buffer pH 7.4, 5 minutes incubation, 0.5 mM Pefachrome FXa): did not block substrate cleavage; effect on substrate cleavage by purified a2M-Xa ([5]; FIG. 2, buffer pH 7.4, 5 minutes incubation, 0.5 mM Pefachrome FXa): blocked substrate cleavage
[H]/N=C(/N)c1ccc(NCc2nc3cc(C(=O)N(CCC(=O)O)c4ccccn4)ccc3n2C)cc1 [dabigatran]					7.2%	approximately 1.5 hours	time for saphenous vein injury to stop bleeding ([6]; 7 μg/kg dabigatran alone): more than 2 minutes; presence of Dabigatran in plasma ([8]; mice fed Pradaxa, animals 7-12): yes; presence of Dabigatran in plasma ([8]; mice fed Xarelto, animals 1-6): no; bound to plasma proteins [9]: 35%; peak plasma level ([1]; healthy human volunteers): 150 ng/mL; route of excretion ([1]; oral treatment): predominantly excreted in the feces

Second part, led by results:

cleavage of the substrate, (a) Thrombin [2]	cleavage of the substrate, (b) a2M-thrombin (a2M-IIa) [3]	cleavage of the substrate, (c) Factor Xa [4]	cleavage of the substrate, (d) a2M-Xa [5]	Compound	oral bioavailability [1]	time to peak plasma concentration [1]	other results
Cleavage	Cleavage	Cleavage	Cleavage	CC(=O)CC(c1ccccc1)c1c(O)c2ccccc2oc1=O (stereo not drawn) [Warfarin]			
No	Cleavage	No	Cleavage	heparin			
